Measured values as given in paper PMC11944670, “Reshaping [^99mTc]Tc-DT11 to DT14D Tagged with Trivalent Radiometals for NTS1R-Positive Cancer Theranostics” (Pharmaceutics, 2025).
Residues, ends and D or L forms follow the SMILES beside them. *: point of attachment. DOTA = O=C(O)CN1CCN(CC(=O)O)CCN(CC(=O)*)CCN(CC(=O)O)CC1; X1 = Cc1ccc(CCCC(=O)NCCOCCOCCOCCOCC(=O)*)cc1; βAla = NCCC(=O)O

Tested on: NTS1R-positive AsPC-1 xenografts
Test: in vivo
Design: species or system mice
Settings: male, SCID, mouse, iv
Protocol: The distribution of [^67Ga]Ga/[^111In]In/[^177Lu]Lu-DT14D was investigated in male severe combined immunodeficiency (SCID) mice (49 mice in total, 6 weeks of age on arrival date, 22 ± 4 g, NCSR “Demokritos” Animal House, Athens, Greece) bearing NTS1R-positive AsPC-1 xenografts in their flanks. For xenograft induction, suspensions of freshly harvested AsPC-1 cells (5 × 10^6 cells in 150 µL sterile PBS) were subcutaneously injected into the mice’s flanks. The animals were kept under aseptic conditions and 4 weeks later developed well palpable masses at the inoculation sites (100 ± 50 mg) and biodistribution was conducted. On the day of the experiment, the animals received a bolus (100 μL, in vehicle: saline/EtOH 9/1 v/v) containing the radioligand via the tail vein. The following groups of four animals per time point, per treatment, were included per radioligand (the 4 h block groups comprised 3 animals instead) including the respective (radio)ligand amounts injected: i. 78–91 kBq [^67Ga]Ga-DT14D corresponding to 7–17 pmol DT14D at 1 and 4 h pi plus 4 h block (coinjection with 100 µg NT); ii. 74–92 kBq [^111In]In-DT14D corresponding to 20–25 pmol at 4 h (controls), 4 h pi (Entresto®; animals receiving a slurry of 12 mg/200 µL Entresto® oral gavage 30 min in advance) and 4 h block (coinjection with 100 µg NT); 24 h pi (including both controls and Entresto® mice groups); and iii. 730 kBq [^177Lu]Lu-DT14D corresponding to 40 pmol DT14D at 4, 24, 48, and 72 h pi plus 4 h block (co-injection with 100 µg NT). The animals were euthanized at predetermined time intervals, dissected and blood samples, organs of interest, and tumors were collected, weighed, and counted in the gamma counter. Biodistribution data were calculated as percent of the injected activity per gram tissue (%IA/g) with the aid of suitable standards of the administered activity. Results as the mean %IA/g values ± sd were obtained and statistical analysis was performed with PRISM^TM GraphPad—10.2 Software (San Diego, CA/USA), applying 2-way ANOVA with Tukey’s post hoc analysis, or, in the case of two variables, Šídák’s multiple comparisons test was adopted; differences with p < 0.05 were considered as statistically significant.

CC[C@H](C)[C@H](NC(=O)[C@H](Cc1ccc(O)cc1)NC(=O)[C@@H]1CCCN1C(=O)[C@H](CCCNC(=N)N)NC(=O)[C@H](CCCNC(=N)N)NC(=O)[C@H](CCCCNC(=O)COCCOCCOCCOCCNC(=O)CCCc1ccc(C)cc1)NC(=O)CCNC(=O)CCNC(=O)CCNC(=O)CN1CCN(CC(=O)O)CCN(CC(=O)O)CCN(CC(=O)O)CC1)C(=O)N[C@@H](CC(C)C)C(=O)O [[^67Ga]Ga-DT14D] [metal not drawn] ({DOTA-βAla-βAla-βAla}-K(X1)RRPYIL-OH)
Biodistribution, Blood (4 h): 2.15 ± 0.40 %IA/g
Biodistribution, Femur (4 h): 1.67 ± 0.36 %IA/g
Biodistribution, Heart (4 h): 0.76 ± 0.12 %IA/g
Biodistribution, Intestines (4 h): 2.32 ± 0.39 %IA/g
Biodistribution, Kidneys (4 h): 3.87 ± 0.96 %IA/g
Biodistribution, Liver (4 h): 3.44 ± 0.15 %IA/g
Biodistribution, Lungs (4 h): 1.34 ± 0.20 %IA/g
Biodistribution, Muscle (4 h): 0.27 ± 0.04 %IA/g
Biodistribution, Pancreas (4 h): 0.51 ± 0.08 %IA/g
Biodistribution, Spleen (4 h): 1.75 ± 0.67 %IA/g
Tumor/Blood ratio (4 h): 2.06 ± 0.21
Tumor/Heart ratio (4 h): 5.75 ± 0.17
Tumor/Intestines ratio (4 h): 1.89 ± 0.06
Tumor/Liver ratio (4 h): 1.28 ± 0.24
Tumor/Muscle ratio (4 h): 16.50 ± 2.36
Tumor/Pancreas ratio (4 h): 8.69 ± 0.52
Tumor/Spleen ratio (4 h): 2.50 ± 0.23

CC[C@H](C)[C@H](NC(=O)[C@H](Cc1ccc(O)cc1)NC(=O)[C@@H]1CCCN1C(=O)[C@H](CCCNC(=N)N)NC(=O)[C@H](CCCNC(=N)N)NC(=O)[C@H](CCCCNC(=O)COCCOCCOCCOCCNC(=O)CCCc1ccc(C)cc1)NC(=O)CCNC(=O)CCNC(=O)CCNC(=O)CN1CCN(CC(=O)O)CCN(CC(=O)O)CCN(CC(=O)O)CC1)C(=O)N[C@@H](CC(C)C)C(=O)O [[^111In]In-DT14D] [metal not drawn] ({DOTA-βAla-βAla-βAla}-K(X1)RRPYIL-OH)
Biodistribution, Blood (4 h): 0.66 ± 0.19 %IA/g
Biodistribution, Femur (4 h): 0.50 ± 0.06 %IA/g
Biodistribution, Heart (4 h): 0.28 ± 0.06 %IA/g
Biodistribution, Intestines (4 h): 1.34 ± 0.06 %IA/g
Biodistribution, Liver (4 h): 0.45 ± 0.04 %IA/g
Biodistribution, Lungs (4 h): 0.79 ± 0.12 %IA/g
Biodistribution, Muscle (4 h): 0.13 ± 0.03 %IA/g
Biodistribution, Pancreas (4 h): 0.24 ± 0.04 %IA/g
Biodistribution, Spleen (4 h): 0.84 ± 0.07 %IA/g
Biodistribution, Stomach (4 h): 0.39 ± 0.05 %IA/g
Biodistribution, Blood (24 h): 0.46 ± 0.08 %IA/g
Biodistribution, Femur (24 h): 1.35 ± 0.36 %IA/g
Biodistribution, Heart (24 h): 0.62 ± 0.23 %IA/g
Biodistribution, Intestines (24 h): 0.69 ± 0.09 %IA/g
Biodistribution, Liver (24 h): 0.33 ± 0.08 %IA/g
Biodistribution, Lungs (24 h): 0.61 ± 0.09 %IA/g
Biodistribution, Muscle (24 h): 0.40 ± 0.10 %IA/g
Biodistribution, Pancreas (24 h): 0.63 ± 0.39 %IA/g
Biodistribution, Spleen (24 h): 1.59 ± 0.14 %IA/g
Biodistribution, Stomach (24 h): 0.27 ± 0.10 %IA/g
Tumor/Intestines ratio (24 h): 3.16 ± 0.49
Tumor/Kidneys ratio (24 h): 1.42 ± 0.25
Tumor/Spleen ratio (24 h): 1.84 ± 0.15
